Test results published in paper PMC9739882, “Main Determinants Affecting the Antiproliferative Activity of Stilbenes and Their Gut Microbiota Metabolites in Colon Cancer Cells: A Structure–Activity Relationship Study” (International Journal of Molecular Sciences, 2022).
Read-outs that look alike come from different tables or passages of the source.

Experiments:
Caco-2 cells [1] = assay: MTT antiproliferative assay in Caco-2 cells; format: cell-based, human; settings: for IC50: Homo sapiens, Caco-2, antiproliferative, MTT, mean ± SD (n = 3)
Description: (§1) The cell lines were obtained from the American Type Culture Collection (ATCC, Rockville, MD, USA) and cultured according to the ATCC. The human colon cancer cell lines Caco-2 (p53-null) and HT-29 (mutant p53), and non-tumorigenic colon cells CCD18-Co (wild-type p53) were grown as reported elsewhere. All tested compounds were solubilized in DMSO (<0.5% in the culture medium) and filter-sterilized (0.2 μm) before addition to the culture media. […] The effects of the compounds on Caco-2, HT-29, and CCD18-Co cell viability and proliferation were measured using the MTT reduction assay according to Giménez-Bastida et al.. Data are presented as the mean ± standard deviation (SD) of at least three independent experiments (n = 2 wells for each compound (dose and time point) per experiment). Then, IC50 antiproliferative values were determined using a four-parameter logistic regression fit. The calculations were performed using the online tool Quest Graph^TM IC50 Calculator (AAT Bioquest, Inc., Sunnyvale, CA, USA (https://www.aatbio.com/tools/ic50-calculator, accessed on 26 April 2022).

HT-29 cells [2] = assay: MTT antiproliferative assay in HT-29 cells; format: cell-based, human; settings: for IC50: Homo sapiens, HT-29, antiproliferative, MTT, mean ± SD (n = 3); for IC50 decrease from 48 to 72 h in HT-29: ratio of IC50 at 48 h vs 72 h (Figure S1)
Description: as §1

HT-29 cells [3] = assay: Phase-II metabolism of compounds by HT-29 cells (UPLC-QTOF-MS of culture media); format: in vitro ADME, human; settings: 50 μM, 24 h incubation
Description: (§2) Briefly, cell culture supernatants were collected at the end of the experiment and analyzed to measure the presence and concentration of the tested compounds. First, ACN (200 μL) was added per 200 μL of culture media, vortexed, and centrifuged at 16,435× g for 10 min. The supernatant was then concentrated in a Speedvac® concentrator (Savant SPD 121P), and then the residue was redissolved in 100 μL of MeOH and filtered (0.45 μm) before analysis by UPLC-QTOF-MS.
(§3) Briefly, the analyses were performed on an Agilent 1290 Infinity UPLC system coupled to a 6550 Accurate-Mass quadrupole-time-of-flight (QTOF) mass spectrometer (Agilent Technologies, Waldbronn, Germany) using an electrospray interface (Jet Stream Technology). Chrysin was used as an internal control of the ionization signal. Spectra were acquired in the m/z range from 100 to 1100, in negative polarity mode (m/z^−) and an acquisition rate of 1.5 spectra/s. Data were processed using the Mass Hunter Qualitative Analysis software (version B.06.00, Agilent). […]
(§4) A direct comparison with the available standards was used to identify the different metabolites. […] In addition, using extracted ion chromatograms (EICs) for area calculation and quantification reduced the possibility of misinterpreting overlapping peaks.

Caco-2 cells [4] = assay: Phase-II metabolism of compounds by Caco-2 cells (UPLC-QTOF-MS of culture media); format: in vitro ADME, human; settings: 50 μM, 72 h incubation
Description: as §2, §3, §4

Caco-2 cells [5] = assay: Cell cycle distribution in Caco-2 cells (flow cytometry); format: cell-based, human; settings: Caco-2, 72 h, compound at its IC50 concentration, p < 0.05 vs control
Description: (§5) The effects of all the compounds at their corresponding IC50 values for 3 days of treatment on cell cycle distribution in Caco-2 cells were measured as described previously. Data are shown as the mean ± SD of 3 independent experiments (2 wells per treatment) for each time point. In addition, the apoptosis induction exerted by all the compounds at their corresponding IC50 values for 3 days of treatment was examined using the Annexin V/PI detection kit (Molecular Probes, ThermoFisher Scientific, Madrid, Spain) as described previously. Briefly, 20,000 Caco-2 cells per sample were analyzed by flow cytometry (Coulter, EPICS XL-MCL, Miami, FL, USA), and staurosporine 5 μM was used as a standard inducer of apoptosis. Finally, the percentage of alive (negative in both annexin V-FITC and PI), early apoptotic (positive in annexin V-FITC and negative in PI), late apoptotic (positive in both annexin V-FITC and PI), and necrotic cells (only positive in PI) was calculated. Data are shown as the mean ± SD of 3 independent experiments (2 wells per treatment) for each time point.

Caco-2 cells [6] = assay: Apoptosis induction in Caco-2 cells (Annexin V/PI, flow cytometry); format: cell-based, human; settings: Caco-2, 72 h, compound at its IC50 concentration
Description: as §5

CCD18-Co cells = assay: MTT antiproliferative assay in non-tumorigenic CCD18-Co cells; format: cell-based; settings: Homo sapiens, CCD-18Co, 72 h, non-tumorigenic colon cells
Description: as §1

[7] = parameters: method as in PMID 35981285; settings: cited from earlier work
[8] = 48 h, read-out: IC50 Caco-2 (48 h)
[9] = 72 h, read-out: IC50 Caco-2 (72 h)
[10] = 48 h, read-out: IC50 HT-29 (48 h)
[11] = 72 h, read-out: IC50 HT-29 (72 h)

SMILES	IC50 (Caco-2 cells [1]; [8]) [µM]	IC50 (Caco-2 cells [1]; [9]) [µM]	IC50 decrease from 48 to 72 h in Caco-2 (Caco-2 cells [1]; ratio of IC50 at 48 h vs 72 h (Figure S1)) [fold]	IC50 (HT-29 cells [2]; [10]) [µM]	IC50 (HT-29 cells [2]; [11]) [µM]	IC50 decrease from 48 to 72 h in HT-29 (HT-29 cells [2])	compound metabolized by HT-29 cells after 24 h (HT-29 cells [3])	compound metabolized by Caco-2 cells after 72 h (Caco-2 cells [4])	cell cycle phase increase vs control (Caco-2 cells [5])	late-phase apoptotic cells vs control cells (Caco-2 cells [6])	IC50 (CCD18-Co cells) [µM]	concentration reached in the human colon [7] [µM]	early-phase apoptotic cells vs control cells (Caco-2 cells [6])
Oc1ccc(/C=C/c2ccccc2)cc1 [4HST, 4-Hydroxy-trans-stilbene]	26.9 ± 8	11.4 ± 10.1	5	34 ± 8.1	24.4 ± 11.3	1.4 fold	fully metabolized	hardly metabolized	significant increase (p < 0.05) was observed at both phases, S and G2/M	significant differences (p < 0.05)			
Oc1ccc(CCc2cccc(O)c2)cc1 [LUNU, 3-(4-hydroxyphenethyl)phenol]	84.5 ± 11.7	50.5 ± 23.1		> 100	53.2 ± 6.8						67	> 100	
Oc1cc(O)cc(/C=C/c2ccc(O)cc2O)c1 [Oxy-RSV, 3,5,2′,4′-tetrahydroxy-trans-stilbene]	74.7 ± 11.5	55.4 ± 2.5		96.7 ± 2.4	83.4 ± 5.8					significant differences (p < 0.05)			statistically significant (p < 0.05)
Oc1cccc(CCc2ccccc2)c1 [3HDB, 3-(2-phenylethyl)phenol]	> 100	42.9 ± 4.1		> 100	81.7 ± 15.5								statistically significant (p < 0.05)
COc1cc(/C=C/c2ccc(O)cc2)cc(OC)c1 [PTERO, 3,5-dimethoxy, 4′-hydroxy-trans-stilbene]	67.6 ± 12.3	43 ± 11.6		45.1 ± 13.7	37.9 ± 5.4				significant increase (p < 0.05) was observed only at the G2/M phase	significant differences (p < 0.05)			statistically significant (p < 0.05)
Oc1ccc(CCc2cc(O)cc(O)c2)cc1 [DHRSV, Dihydroresveratrol]	55.4 ± 10.8	33.8 ± 17.8		> 100	69 ± 9.3						53	> 100	statistically significant (p < 0.05)
Oc1cc(O)cc(CCc2ccccc2)c1 [DHP, 3-hydroxy-(5-phenethyl)phenol]	54 ± 3.1	73.9 ± 13.8		> 100	82.4 ± 12.1								statistically significant (p < 0.05)
Oc1cc(O)cc(/C=C/c2ccccc2)c1 [PINO, 3,5-dihydroxy-trans-stilbene]	55.3 ± 12.7	26.4 ± 7.1		37.5 ± 14.3	38.1 ± 8	no change							statistically significant (p < 0.05)
Oc1cc(O)cc(/C=C/c2ccc(O)c(O)c2)c1 [PICE, 3,5,3′,4′-tetrahydroxy-trans-stilbene]	55.4 ± 10.8	42 ± 9.8		78.5 ± 5.7	69.5 ± 4.6					significant differences (p < 0.05)			statistically significant (p < 0.05)
OCc1ccc(/C=C/c2ccccc2)cc1 [4STMe, trans-4-stilbenemethanol]	88.3 ± 14.6	59.9 ± 23.1		85.4 ± 16.5	57.1 ± 18.9								statistically significant (p < 0.05)
Oc1ccc(CCc2ccccc2)cc1 [4HDB, 4-(2-phenylethyl)phenol]	> 100	56.9 ± 8		> 100	96.7 ± 6.7								
Oc1ccc(C=Cc2cccc(O)c2)cc1 [DHST, 3-(4-hydroxystyryl)phenol]	57.1 ± 10.2	22.7 ± 6.4		64.8 ± 15.6	48.3 ± 17.8				significant increase (p < 0.05) was observed at both phases, S and G2/M	significant differences (p < 0.05)			statistically significant (p < 0.05)
Oc1ccc(/C=C/c2cc(O)cc(O)c2)cc1 [RSV, 3,5,4′-trihydroxy-trans-stilbene]	50.4 ± 3.4	18.8 ± 1.6		68.9 ± 22.6	59.1 ± 9.9		100%	14%		significant differences (p < 0.05)			
